Test results from US11655241B2, “Heterocyclic compound and use thereof” (Takeda Pharmaceutical Company Limited, priority 2018, dated 2023).

Molecular target: T1, human orexin type 2 receptor (Homo sapiens, UniProt O43614)
T1 construct: expressed in transfected cells
T1 sequence (O43614 1-444): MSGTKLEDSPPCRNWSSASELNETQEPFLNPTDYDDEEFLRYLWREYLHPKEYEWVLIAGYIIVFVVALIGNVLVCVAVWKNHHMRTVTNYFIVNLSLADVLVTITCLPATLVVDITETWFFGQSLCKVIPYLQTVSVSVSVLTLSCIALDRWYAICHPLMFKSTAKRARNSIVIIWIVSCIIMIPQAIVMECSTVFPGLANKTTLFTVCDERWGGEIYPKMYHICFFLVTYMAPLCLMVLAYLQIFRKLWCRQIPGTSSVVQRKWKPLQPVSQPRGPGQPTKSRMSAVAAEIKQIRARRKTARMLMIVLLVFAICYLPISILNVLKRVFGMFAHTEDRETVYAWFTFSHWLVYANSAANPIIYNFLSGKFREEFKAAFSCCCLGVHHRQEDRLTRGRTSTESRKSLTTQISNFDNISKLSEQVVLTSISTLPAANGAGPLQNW
Assay: Measurement of orexin type 2 receptor agonist activity (calcium fluorescence, Fluo-4 AM, FDSS)
Assay type: cell-based
Settings: compound at 3 μM; CHO cells forcibly expressing human OX2 receptor; DMSO = 0%, orexin A (human) 10 nM = 100%
Description: Experimental Example 1: Obtainment of Cell Stably Expressing Human Orexin Type 2 Receptor (hOX2R)
To obtain a cell clone stably expressing human orexin type 2 receptor, human orexin type 2 receptor cDNA was inserted into pcDNA3.1(+) plasmid vector (Invitrogen), and a plasmid DNA for expression of human orexin type 2 receptor (pcDNA3.1(+)/hOX2R) was cloned. The plasmid DNA was introduced into CHO-dhfr cell by an electroporation method, and human orexin type 2 receptor expressing clone cells were obtained by limiting dilution method by using G418 drug resistance as a selection marker.
Experimental Example 2: Measurement of Orexin Type 2 Receptor Agonist Activity
CHO cells forcibly expressing human OX2 receptor were seeded in each well of 384 well black transparent bottom plate (BD Falcon) at 7,500 cells/well, and cultured for one day in a 5% CO2 incubator at 37° C. After removal of the medium in the cell plate, assay buffer A containing a calcium indicator (HBSS (Thermo Fisher Scientific), 20 mM HEPES (Thermo Fisher Scientific), 0.1% BSA (Wako Pure Chemical Industries, Ltd. or Sigma-Aldrich), 2.5 μg/mL Fluo-4 AM (DOJINDO Chemical), 0.08% Pluronic F127 (DOJINDO Chemical), 1.25 mM probenecid (DOJINDO Chemical)) was added at 30 μL/well. The plate was stood for 30 min in a 5% CO2 incubator at 37° C., and further stood at room temperature for 30 min. A test compound prepared by diluting with assay buffer B (HBSS, 20 mM HEPES, 0.1% BSA) was added at 10 μL/well, and the fluorescence value was measured by FDSSμCELL (Hamamatsu Photonics K.K.) every one sec for 1 min, and thereafter every two sec for 1 min 40 sec. The activity (%) of the test compound was calculated assuming that variation in the fluorescence value when DMSO was added instead of the test compound was 0%, and variation in the fluorescence value when orexin A (human) (PEPTIDE INSTITUTE, INC.) was added at the final concentration of 10 nM was 100%. The activity of each compound at the concentration of 3 μM was shown below.

Row | SMILES | OX2R agonist activity (3 μM, %)
1 | COC(=O)N[C@H]1CCN(C(=O)C2CCC2)[C@H]1Cc1cccc(-c2cccc(F)c2)c1 (relative stereo) [Example 1, methyl{cis-1-(cyclobutanecarbonyl)-2-[(3′-fluoro[1,1′-biphenyl]-3-yl)methyl]pyrrolidin-3-yl}carbamate] | 33%
2 | O=C(N[C@H]1CCN(C(=O)C2CCC2)[C@H]1Cc1cccc(-c2cccc(F)c2)c1)C1CCCO1 (relative stereo) [Example 5, N-{cis-1-(cyclobutanecarbonyl)-2-[(3′-fluoro[1,1′-biphenyl]-3-yl)methyl]pyrrolidin-3-yl}oxolane-2-carboxamide] | 92%
3 | O=C(CO)N[C@H]1CCN(C(=O)C2CCC2)[C@H]1Cc1cccc(-c2cccc(F)c2)c1 (relative stereo) [Example 6, N-{cis-1-(cyclobutanecarbonyl)-2-[(3′-fluoro[1,1′-biphenyl]-3-yl)methyl]pyrrolidin-3-yl}-2-hydroxyacetamide] | 60%
4 | CC(F)(F)C(=O)N[C@H]1CCN(C(=O)C2CCC2)[C@H]1Cc1cccc(-c2cccc(F)c2)c1 (relative stereo) [Example 8, N-{cis-1-(cyclobutanecarbonyl)-2-[(3′-fluoro [1,1′-biphenyl]-3-yl)methyl]pyrrolidin-3-yl}-2,2-difluoropropanamide] | 66%
5 | O=C(C1CCC1)N1CC[C@H](NC(=O)C2(F)CCC2)[C@@H]1Cc1cccc(-c2cccc(F)c2)c1 (relative stereo) [Example 10, N-{cis-1-(cyclobutanecarbonyl)-2-[(3′-fluoro[1,1′-biphenyl]-3-yl)methyl]pyrrolidin-3-yl}-1-fluorocyclobutane-1-carboxamide] | 79%
6 | COC1(C(=O)N[C@H]2CCN(C(=O)C3CCC3)[C@H]2Cc2cccc(-c3cccc(F)c3)c2)CC1 (relative stereo) [Example 11, N-{cis-1-(cyclobutanecarbonyl)-2-[(3′-fluoro[1,1′-biphenyl]-3-yl)methyl]pyrrolidin-3-yl}-1-methoxycyclopropane-1-carboxamide] | 93%
7 | O=C(NC1CCN(C(=O)C2CCC2)C1Cc1cccc(-c2cccc(F)c2)c1)[C@@H]1CCCO1 (stereo in doubt) [Example 16, (2S)-N-{cis-1-(cyclobutanecarbonyl)-2-[(3′-fluoro[1,1′-biphenyl]-3-yl)methyl]pyrrolidin-3-yl}oxolane-2-carboxamide] | 90%
8 | CN(C)C(=O)C(=O)NC1CCN(C(=O)C2CCC2)C1Cc1cccc(-c2cccc(F)c2)c1 (stereo not drawn) [Example 4, N^~2^~-{cis-1-(cyclobutanecarbonyl)-2-[(3′-fluoro[1,1′-biphenyl]-3-yl)methyl]pyrrolidin-3-yl}-N^~1^~,N^~1^~- dimethylethanediamide] | 95%
9 | CN(C)C(=O)C(=O)N[C@H]1CCN(C(=O)N2CCC2)[C@H]1Cc1csc(-c2cccc(F)c2)n1 [Example 19, N^~2^~-[(2S,3S)-1-(azetidine-1-carbonyl)-2-{[2-(3-fluorophenyl)-1,3-thiazol-4-yl]methyl}pyrrolidin-3-yl]-N^~1,N^~1^~- dimethylethanediamide] | 89%
10 | CN(C)C(=O)C(=O)N[C@H]1CCN(C(=O)C2CCC2)[C@H]1Cc1csc(-c2cccc(F)c2)n1 [Example 20, N^~2^~-[(2S,3S)-1-(cyclobutanecarbonyl)-2-{[2-(3-fluorophenyl)-1,3-thiazol-4-yl]methyl}pyrrolidin-3-yl]-N^~1,N^~1^~- dimethylethanediamide] | 82%
11 | O=C(N[C@H]1CCN(C(=O)N2CCC2)[C@H]1Cc1cccc(-c2cccc(F)c2)n1)[C@@H]1CCCO1 [Example 21, (2S)-N-[(2S,3S)-1-(azetidine-1-carbonyl)-2-{[6-(3-fluorophenyl)pyridin-2-yl]methyl]pyrrolidin-3-yl]oxolane-2-carboxamide] | 59%
12 | O=C(N[C@H]1CCN(C(=O)N2CCC2)[C@H]1Cc1csc(-c2cccc(F)c2)n1)[C@@H]1CCCO1 [Example 23, (2S)-N-[(2S,3S)-1-(azetidine-1-carbonyl)-2-{[2-(3-fluorophenyl)-1,3-thiazol-4-yl]methyl}pyrrolidin-3-yl]oxolane-2-carboxamide] | 76%
13 | O=C(N[C@H]1CCN(C(=O)C2CCC2)[C@H]1Cc1csc(-c2cccc(F)c2)n1)[C@@H]1CCCO1 [Example 24, (2S)-N-[(2S,3S)-1-(cyclobutanecarbonyl)-2-{[2-(3-fluorophenyl)-1,3-thiazol-4-yl]methyl}pyrrolidin-3-yl]oxolane-2-carboxamide] | 65%
14 | COC1(C(=O)N[C@H]2CCN(C(=O)N3CCC3)[C@H]2Cc2cccc(-c3cccc(F)c3)n2)CC1 [Example 25, N-[(2S,3S)-1-(azetidine-1-carbonyl)-2-([6-(3-fluorophenyl)pyridin-2-yl]methyl]pyrrolidin-3-yl]-1-methoxycyclopropane-1-carboxamide] | 54%
15 | COC1(C(=O)N[C@H]2CCN(C(=O)N3CCC3)[C@H]2Cc2csc(-c3cccc(F)c3)n2)CC1 [Example 26, N-[(2S,3S)-1-(azetidine-1-carbonyl)-2-{[2-(3-fluorophenyl)-1,3-thiazol-4-yl]methyl}pyrrolidin-3-yl]-1-methoxycyclopropane-1-carboxamide] | 67%
16 | COC1(C(=O)N[C@H]2CCN(C(=O)C3CCC3)[C@H]2Cc2csc(-c3cccc(F)c3)n2)CC1 [Example 27, N-[(2S,3S)-1-(cyclobutanecarbonyl)-2-{[2-(3-fluorophenyl)-1,3-thiazol-4-yl]methyl}pyrrolidin-3-yl]-1-methoxycyclopropane-1-carboxamide] | 60%
17 | CN(C)C(=O)C(=O)NC1CCCN(C(=O)C2CCC2)C1Cc1cccc(-c2cccc(F)c2)c1 (stereo not drawn) [Example 29, N^~2^~-{cis-1-(cyclobutanecarbonyl)-2-[(3′-fluoro[1,1′-biphenyl]-3-yl)methyl]piperidin-3-yl}-N^~1^~,N^~1^~- dimethylethanediamide] | 80%
18 | CN(C)C(=O)C(=O)N[C@H]1CCN(C(=O)N2CCC2)[C@H]1Cc1cccc(-c2cccc(F)c2)c1 [Example 30, N^~2^~-{(2S,3S)-1-(azetidine-1-carbonyl)-2-[(3′-fluoro[1,1′-biphenyl]-3-yl)methyl]pyrrolidin-3-yl}-N^~1^~,N^~1^~-dimethylethanediamide] | 101%
19 | O=C(N[C@H]1CCN(C(=O)N2CCC2)[C@H]1Cc1cccc(-c2cccc(F)c2)c1)[C@@H]1CCCO1 [Example 31, (2S)-N-{(2S,3S)-1-(azetidine-1-carbonyl)-2-[(3′-fluoro[1,1′-biphenyl]-3-yl)methyl]pyrrolidin-3-yl}oxolane-2-carboxamide] | 104%
20 | CN(C)C(=O)C(=O)N[C@H]1CCN(C(=O)C2CCC2)[C@H]1Cc1cccc(-c2cccc(F)c2)c1 [Example 32, N^~2^~-{(2S,3S)-1-(cyclobutanecarbonyl)-2-[(3′-fluoro[1,1′-biphenyl]-3-yl)methyl]pyrrolidin-3-yl}-N^~1^~,N^~1^~- dimethylethanediamide] | 103%
21 | O=C(N[C@H]1CCN(C(=O)C2CCC2)[C@H]1Cc1cccc(-c2cccc(F)c2)c1)[C@@H]1CCCO1 [Example 33, (2S)-N-{(2S,3S)-1-(cyclobutanecarbonyl)-2-[(3′-fluoro[1,1′-biphenyl]-3-yl)methyl]pyrrolidin-3-yl}oxolane-2-carboxamide] | 97%
22 | CN(C)C(=O)C(=O)N[C@H]1CCN(C(=O)C2(F)CCC2)[C@H]1Cc1cccc(-c2cccc(F)c2)c1 [Example 35, N^~2^~-[(2S,3S)-2-[(3′-fluoro[1,1′-biphenyl]-3-yl)methyl]-1-(1-fluorocyclobutane-1-carbonyl)pyrrolidin-3-yl]-N^~1^~,N^~1^~- dimethylethanediamide] | 75%
